{
  "source": "patent US7903239B2",
  "about": "“Porous photonic crystal with light scattering domains and methods of synthesis and use thereof” (priority 2004, dated 2011)",
  "key": {"[1]": {"tested_on": "primary rat hepatocytes", "test": "Phase-contrast microscopy of hepatocytes on tissue-culture polystyrene plates", "settings": "50 μM Cd^2+", "description": "Optical measurements. Images for cells seeded on porous silicon photonic crystals were collected using a reflectance microscope and a 10× LWD objective with on-normal and off-normal illumination using a white light source. Phase contrast images for cells seeded on tissue cultured polystyrene multi-well plates were obtained on a Nikon TE200 microscope with a 10× objective and captured with a camera. Images were processed on Metamorph and JImage. […] Cells were seeded on the porous Si chips at less than 100% coverage so that the porous silicon background could provide contrast. In order to follow the same subset of cells throughout the course of morphology changes for the Cd^2+ toxicity studies, the cells were not incubated while monitoring with the microscope. Rather, cells were placed on a chip and Cd^2+ concentration was adjusted to a final concentration of 200 μM. Pictures were obtained at time 0 and 85 minutes."}, "[2]": {"tested_on": "hepatocytes", "settings": "Cd^2+ in the 50-400 μM range; cited from earlier work"}, "[3]": {"tested_on": "hepatocytes", "test": "Reflectance microscopy of non-incubated hepatocytes on porous Si photonic crystal", "type": "cell-based, rat", "settings": "200 μM Cd^2+, eighty-five min after introduction, cells not incubated", "description": "More particularly, measurement of light scattered from a monolayer of hepatocyte cells on a porous Si photonic crystal is used to measure changes in cellular morphology. Data were collected after hepatocytes were administered a toxic dose of aqueous cadmium chloride (200 μM). […] Upon exposure to Cd^2+, characteristic changes in morphology that accompany loss of viability, such as blebbing and increased granularity, are observed (FIG. 9b). The optical setup produces more dramatic images upon exposure to a toxic dose of Cd^2+. In this arrangement, cells appear with a color characteristic of the underlying photonic crystal, while the regions that are not covered with cells appear darker (FIG. 5a). After loss of viability, the cytoplasm appears brighter, leading to greater nuclear and cell boundary contrast (FIG. 5b).\nOptical measurements. […] Images were processed on Metamorph and JImage. […] Pictures were obtained at time 0 and 85 minutes."}, "[4]": {"tested_on": "rat hepatocyte cells", "test": "MTT cell viability assay", "type": "cell-based", "settings": "50 μM Cd^2+, after ~10 h"}, "[5]": {"tested_on": "primary rat hepatocytes", "test": "Light scattering from hepatocytes seeded on a porous Si photonic crystal (CCD spectrometer, in incubator)", "type": "cell-based", "settings": "50 μM Cd^2+", "protocol": "Hepatocytes were isolated from 2-3 month old adult female Lewis rats by collagenase perfusion as previously described. Hepatocytes were then seeded on the polystyrene-coated porous silicon samples or on tissue-culture polystyrene dishes.\nHepatocytes were then seeded on the activated polystyrene-coated chip.\nCell seeding. Porous Si photonic crystal samples were sterilized in a 35 mm dish with 2 mL of 100% ethanol for 1 hour. Ethanol was removed and the samples were allowed to dry in a sterile laminar-flow hood. The samples and dish were washed twice with sterile water. To improve adhesion, 2 mL of a 0.1 mg/mL solution of rat-tail collagen (collagen I) was added to the dish, and the samples were incubated at 37° C. for one h. The collagen-coated samples were then washed once with sterile water, and once with growth media. Media for all experiments was DMEM with high glucose (Invitrogen), 10% fetal bovine serum, supplemented with 0.5 U/mL insulin, 7 ng/mL glucagon, 7.5 mg/mL hydrocortisone, 10 U/mL penicillin, and 10 mg/mL streptomycin. Hepatocytes were isolated from 2-3 month old adult female Lewis rats by collagenase perfusion as previously described. Less than one hour after isolation, 1.25×10^6 cells per dish were seeded in 2 mL of media for scattering experiments and 6×10^5 cells per dish for microscope experiments. As the porous Si samples were smaller than the dish, some cells settled and attached to the polystyrene surface. Unattached cells were removed after one hour and dishes were incubated at 37° C., 5% CO2 for 24 hours to allow spreading before the start of observation.\nReflectance spectra were collected using an Ocean Optics S-2000 CCD spectrometer fitted with a microscope objective lens coupled to either a bifurcated fiber optic cable (for specular measurements) or a single fiber optic cable (for scattering measurements). […]"}},
  "data": [
    {"compound": "[Cl][Cd][Cl]", "note": "[Cd^2+, cadmium chloride]", "values": [
      {"measurement": "hepatocyte morphology by phase contrast", "setting": "[1]", "result": "granular appearance increases substantially, even after 2 h"},
      {"measurement": "time by which most cellular features become indistinguishable", "setting": "[1]", "result": "≤ 14", "unit": "h"},
      {"measurement": "time of cell damage (decrease in membrane and metabolic integrity)", "setting": "[2]", "result": "within the first hour of exposure"},
      {"measurement": "hepatocytes that have lost viability", "setting": "[3]", "result": "> 90", "unit": "%"},
      {"measurement": "viability according to MTT stain, % of the initial value", "setting": "[4]", "result": "~50", "unit": "%"},
      {"measurement": "time after which intensity of scattered light reaches a constant value", "setting": "[5]", "result": "~10", "unit": "h"},
      {"measurement": "time after which relative scattered intensity shows a significant increase", "setting": "[5]", "result": "~2", "unit": "h"},
      {"measurement": "time by which scattering changes precede first loss of viability in MTT stain", "setting": "[5]", "result": "~2", "unit": "h"}
    ]}
  ]
}
